Values of other authors in US8226992B1, “Composition and method of preventing and treating redox diseases” (priority 2009, dated 2012).

How the values were obtained:
[1] = target: T1, Farnesoid X Receptors (FXR) (Mus musculus, UniProt Q60641); details: mouse model
T1 sequence (Q60641 1-488): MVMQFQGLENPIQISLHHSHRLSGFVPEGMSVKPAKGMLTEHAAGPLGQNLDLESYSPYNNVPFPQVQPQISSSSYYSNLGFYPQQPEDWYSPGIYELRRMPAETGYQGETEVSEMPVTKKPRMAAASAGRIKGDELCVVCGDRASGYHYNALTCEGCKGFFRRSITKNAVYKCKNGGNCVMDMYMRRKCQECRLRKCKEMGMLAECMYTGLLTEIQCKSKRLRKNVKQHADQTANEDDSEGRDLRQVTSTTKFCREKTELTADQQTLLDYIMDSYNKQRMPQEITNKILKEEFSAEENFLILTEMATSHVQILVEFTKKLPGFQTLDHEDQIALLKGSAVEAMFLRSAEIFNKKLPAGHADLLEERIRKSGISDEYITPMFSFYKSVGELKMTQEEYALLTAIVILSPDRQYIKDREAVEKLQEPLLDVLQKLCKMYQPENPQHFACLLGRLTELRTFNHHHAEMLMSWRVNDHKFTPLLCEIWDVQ

[2] = at high levels

Structure (SMILES): C[C@@]12CCc3occc3[C@H]1CC[C@@]13C[C@@H](CC[C@H]12)[C@@](O)(CO)C3 [Cafestol]
- activity at Farnesoid X Receptors (FXR) [1]: agonist ligand

Structure (SMILES): O=C(O)c1cccnc1 [Naicin]
- Lp(a) levels reduced [2]: up to 15%
